Laboratory results taken from patent US8716284B2, “Adamantyl diamide derivatives and uses of same” (H. Lundbeck A/S, priority 2008, dated 2014).

biological target: T1, rat metabotropic glutamate receptor 5 (mGluR5) (Rattus norvegicus, UniProt P31424); test: Calcium mobilization assay (FLIPR) for negative or positive allosteric activity, HEK 293 cells; type: cell-based; settings: HEK293, negative allosteric modulation, inhibition of EC80 glutamate response; read-out: FLIPR maximum inhibition
T1 construct: expressed in transfected cells; host or cells: HEK 293
T1 sequence (P31424 21-1171 isoform P31424-2 limits assumed): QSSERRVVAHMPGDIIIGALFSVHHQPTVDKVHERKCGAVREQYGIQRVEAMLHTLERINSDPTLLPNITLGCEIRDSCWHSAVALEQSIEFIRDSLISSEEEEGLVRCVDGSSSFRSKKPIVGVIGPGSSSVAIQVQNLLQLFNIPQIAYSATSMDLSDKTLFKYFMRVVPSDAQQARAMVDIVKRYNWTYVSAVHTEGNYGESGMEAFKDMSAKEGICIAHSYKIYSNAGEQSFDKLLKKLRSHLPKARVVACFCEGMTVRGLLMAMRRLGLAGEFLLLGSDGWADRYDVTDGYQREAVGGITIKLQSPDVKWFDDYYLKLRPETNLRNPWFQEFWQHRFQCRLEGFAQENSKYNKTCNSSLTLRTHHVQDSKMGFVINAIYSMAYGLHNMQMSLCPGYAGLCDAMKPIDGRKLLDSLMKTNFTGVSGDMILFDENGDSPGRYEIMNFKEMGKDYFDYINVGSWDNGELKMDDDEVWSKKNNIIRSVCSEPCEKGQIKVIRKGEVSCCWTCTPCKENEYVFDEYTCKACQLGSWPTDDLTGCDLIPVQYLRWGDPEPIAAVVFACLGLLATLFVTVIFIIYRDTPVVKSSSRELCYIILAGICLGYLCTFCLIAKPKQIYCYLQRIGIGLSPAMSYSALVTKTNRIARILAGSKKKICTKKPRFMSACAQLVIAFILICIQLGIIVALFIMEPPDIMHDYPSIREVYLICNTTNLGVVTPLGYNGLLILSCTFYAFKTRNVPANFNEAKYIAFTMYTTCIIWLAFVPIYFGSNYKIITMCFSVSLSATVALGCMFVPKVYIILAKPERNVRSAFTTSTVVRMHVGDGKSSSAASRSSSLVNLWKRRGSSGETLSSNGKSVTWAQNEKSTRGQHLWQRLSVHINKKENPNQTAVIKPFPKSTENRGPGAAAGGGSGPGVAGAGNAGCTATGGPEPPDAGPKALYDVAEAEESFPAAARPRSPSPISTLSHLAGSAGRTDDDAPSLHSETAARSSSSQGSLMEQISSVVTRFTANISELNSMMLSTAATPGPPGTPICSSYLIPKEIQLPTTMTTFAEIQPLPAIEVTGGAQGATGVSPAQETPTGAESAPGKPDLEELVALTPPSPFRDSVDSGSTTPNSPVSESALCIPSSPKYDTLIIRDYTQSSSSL
Protocol: The cDNA for rat metabotropic glutamate receptor 5 (mGluR5) was a generous gift from S. Nakanishi (Kyoto University, Kyoto, Japan). The mGluR5 was stably expressed in a HEK 293 cell line and grown in Dulbecco's Modified Eagle Medium (DMEM) (Invitrogen, Carlsbad, Calif.) with supplements (10% bovine calf serum, 4 mM glutamine, 100 units/mL penicillin, 100 μg/mL streptomycin and 0.75 mM G1418) at 37° C., 5% CO2. Twenty-four hours prior to assay, cells were seeded into 384-well black wall microtiter plates coated with poly-D-lysine. Just prior to assay, media was aspirated and cells dye-loaded (25 μL/well) with 3 μM Fluo-4/0.01% pluronic acid in assay buffer (Hank's Balanced Saline Solution (HBSS)): 150 mM NaCl, 5 mM KCl, 1 mM CaCl2, 1 mM MgCl2, plus 20 mM N-2-Hydroxyethylpiperazine-N′-2-ethanesulfonic acid (HEPES), pH 7.4, 0.1% bovine serum albumin (BSA) and 2.5 mM probenicid) for 1 hour in 5% CO2 at 37° C. After excess dye was discarded, cells were washed in assay buffer and layered with a final volume equal to 30 μL/well. Basal fluorescence is monitored in a fluorometric imaging plate reader (FLIPR) (Molecular Devices, Sunnyvale, Calif.) with an excitation wavelength of 488 nm and an emission range of 500 to 560 nm. Laser excitation energy was adjusted so that basal fluorescence readings were approximately 10,000 relative fluorescent units. Cells were stimulated with an EC20 or an EC80 concentration of glutamate in the presence of a compound to be tested, both diluted in assay buffer, and relative fluorescent units were measured at defined intervals (exposure=0.6 sec) over a 3 min period at room temperature. Basal readings derived from negative controls were subtracted from all samples. Maximum change in fluorescence was calculated for each well. Concentration-response curves derived from the maximum change in fluorescence were analyzed by nonlinear regression (Hill equation). A negative modulator can be identified from these concentration-response curves if a compound produces a concentration dependent inhibition of the EC80 glutamate response. […] Examples 11-163 also were tested in the above assay.
A positive modulator can be identified from these concentration-response curves if a compound produces a concentration dependent increase in the EC20 glutamate response.

| Structure (SMILES) | Emax |
| --- | --- |
| O=C(NC12CC3CC(C1)CC(NC(=O)c1cccc(N4CCC[C@@H]4CO)n1)(C3)C2)c1cccc(F)c1 [Example 250, 6-((R)-2-Hydroxymethyl-pyrrolidin-1-yl)-pyridine-2-carboxylic acid [3-(3-fluoro-benzoylamino)-adamantan-1-yl]-amide] | 63 to 99% |
| Cc1cncc(C(=O)NC23CC4CC(CC(NC(=O)c5ccc(F)c(Cl)c5)(C4)C2)C3)n1 [Example 149, 6-Methyl-pyrazine-2-carboxylic acid [3-(3-chloro-4-fluoro-benzoylamino)-adamantan-1-yl]-amide] | 70 to 99% |
| Cc1cccc(C(=O)NC23CC4CC(C2)CC(NC(=O)c2cccc(-n5ccnc5)n2)(C4)C3)n1 [Example 254, 6-Imidazol-1-yl-pyridine-2-carboxylic acid {3-[(6-methyl-pyridine-2-carbonyl)-amino]-adamantan-1-yl}-amide] | 63 to 99% |
| Cc1ccc(C(=O)NC23CC4CC(C2)CC(NC(=O)c2cccc(C)n2)(C4)C3)nc1 [Example 130, 6-Methyl-pyridine-2-carboxylic acid {3-[(5-methyl-pyridine-2-carbonyl)-amino]-adamantan-1-yl}-amide] | 70 to 99% |
| CCn1ccc(C(=O)NC23CC4CC(CC(NC(=O)c5cccc(C)n5)(C4)C2)C3)n1 [Example 42, 6-Methyl-pyridine-2-carboxylic acid {3-[(1-ethyl-1H-pyrazole-3-carbonyl)-amino]-adamantan-1-yl}-amide] | 63 to 99% |
| O=C(NC12CC3CC(C1)CC(NC(=O)c1cccc(-n4ccnc4)n1)(C3)C2)c1cccc(F)c1 [Example 255, 6-Imidazol-1-yl-pyridine-2-carboxylic acid [3-(3-fluoro-benzoylamino)-adamantan-1-yl]-amide] | 63 to 99% |
| Cc1cncc(C(=O)NC23CC4CC(C2)CC(NC(=O)c2cccc(C(F)(F)F)c2F)(C4)C3)n1 [Example 150, 6-Methyl-pyrazine-2-carboxylic acid [3-(2-fluoro-3-trifluoromethyl-benzoylamino)-adamantan-1-yl]-amide] | 70 to 99% |
| O=C(NC12CC3CC(C1)CC(NC(=O)c1ccccn1)(C3)C2)c1ccccc1 [Example 71, Pyridine-2-carboxylic acid (3-benzoylamino-adamantan-1-yl)-amide] | 63 to 99% |
| Cc1cccc(C(=O)NC23CC4CC(CC(NC(=O)c5ccncc5)(C4)C2)C3)n1 [Example 116, 6-Methyl-pyridine-2-carboxylic acid {3-[(pyridine-4-carbonyl)-amino]-adamantan-1-yl}-amide] | 70 to 99% |
| Cc1cccc(C(=O)NC23CC4CC(C2)CC(NC(=O)c2coc(C)n2)(C4)C3)n1 [Example 29, 6-Methyl-pyridine-2-carboxylic acid {3-[(2-methyl-oxazole-4-carbonyl)-amino]-adamantan-1-yl}-amide] | 63 to 99% |
| Cc1cncc(C(=O)NC23CC4CC(C2)CC(NC(=O)c2cc(F)ccc2F)(C4)C3)n1 [Example 148, 6-Methyl-pyrazine-2-carboxylic acid [3-(2,5-difluoro-benzoylamino)-adamantan-1-yl]-amide] | 70 to 99% |
| Cc1cccc(C(=O)NC23CC4CC(C2)CC(NC(=O)c2cccc(N5CCC(O)CC5)n2)(C4)C3)n1 [Example 206, 4-Hydroxy-3,4,5,6-tetrahydro-2H-[1,2′]bipyridinyl-6′-carboxylic acid{3-[(6-methyl-pyridine-2-carbonyl)-amino]-adamantan-1-yl}-amide] | 63 to 99% |
| Cc1cc(C(=O)NC23CC4CC(CC(NC(=O)c5ccccn5)(C4)C2)C3)on1 [Example 78, Pyridine-2-carboxylic acid {3-[(3-methyl-isoxazole-5-carbonyl)-amino]-adamantan-1-yl}-amide] | 63 to 99% |
| Cc1cccc(C(=O)NC23CC4CC(C2)CC(NC(=O)c2cn5cc(Cl)ccc5n2)(C4)C3)n1 [Example 50, 6-Chloro-imidazo[1,2-a]pyridine-2-carboxylic acid {3-[(6-methyl-pyridine-2-carbonyl)-amino]-adamantan-1-yl}-amide] | 63 to 99% |
| O=C(NC12CC3CC(C1)CC(NC(=O)c1ccno1)(C3)C2)c1ccccn1 [Example 77, Pyridine-2-carboxylic acid {3-[(isoxazole-5-carbonyl)-amino]-adamantan-1-yl}-amide] | 63 to 99% |
| O=C(NC12CC3CC(C1)CC(NC(=O)c1ccc(F)cn1)(C3)C2)c1ccccn1 [Example 111, 5-Fluoro-pyridine-2-carboxylic acid {3-[(pyridine-2-carbonyl)-amino]-adamantan-1-yl}-amide] | 70 to 99% |
| O=C(NC12CC3CC(C1)CC(NC(=O)c1cccc(N4CCCC4)n1)(C3)C2)c1ccccn1 [Example 61, 6-Pyrrolidin-1-yl-pyridine-2-carboxylic acid {3-[(pyridine-2-carbonyl)-amino]-adamantan-1-yl}-amide] | 63 to 99% |
| CC(=O)NCCNc1cccc(C(=O)NC23CC4CC(CC(NC(=O)c5ccccn5)(C4)C2)C3)n1 [Example 223, 6-(2-Acetylamino-ethylamino)-pyridine-2-carboxylic acid {3-[(pyridine-2-carbonyl)-amino]-adamantan-1-yl}-amide] | 63 to 99% |
| Cc1cccc(C(=O)NC23CC4CC(CC(NC(=O)c5cc(O)ccn5)(C4)C2)C3)n1 [Example 132, 6-Methyl-pyridine-2-carboxylic acid {3-[(4-hydroxy-pyridine-2-carbonyl)-amino]-adamantan-1-yl}-amide] | 70 to 99% |
| O=C(NC12CC3CC(C1)CC(NC(=O)c1cn4cc(Cl)ccc4n1)(C3)C2)c1cccc(F)c1 [Example 98, 6-Chloro-imidazo[1,2-a]pyridine-2-carboxylic acid [3-(3-fluoro-benzoylamino)-adamantan-1-yl]-amide] | 63 to 99% |

Continued, values first:

| Emax | Structure (SMILES) |
| --- | --- |
| 63 to 99% | Cc1nccc(C(=O)NC23CC4CC(C2)CC(NC(=O)c2nccc(C(F)(F)F)n2)(C4)C3)n1 [Example 192, 4-Trifluoromethyl-pyrimidine-2-carboxylic acid {3-[(2-methyl-pyrimidine-4-carbonyl)-amino]-adamantan-1-yl}-amide] |
| 63 to 99% | O=C(NC12CC3CC(C1)CC(NC(=O)c1cnccn1)(C3)C2)c1ccnc(Br)c1 [Example 186, Pyrazine-2-carboxylic acid {3-[(2-bromo-pyridine-4-carbonyl)-amino]-adamantan-1-yl}-amide] |
| 63 to 99% | Cc1cccc(C(=O)NC23CC4CC(C2)CC(NC(=O)c2cccc(N(C)CCN(C)C)n2)(C4)C3)n1 [Example 204, 6-[(2-Dimethylamino-ethyl)-methyl-amino]-pyridine-2-carboxylic acid{3-[(6-methyl-pyridine-2-carbonyl)-amino]-adamantan-1-yl}-amide] |
| 63 to 99% | Cc1ccnc(C(=O)NC23CC4CC(CC(NC(=O)c5ccnc(C)n5)(C4)C2)C3)n1 [Example 193, 2-Methyl-pyrimidine-4-carboxylic acid {3-[(4-methyl-pyrimidine-2-carbonyl)-amino]-adamantan-1-yl}-amide] |
| 63 to 99% | Cc1ccn2cc(C(=O)NC34CC5CC(CC(NC(=O)c6cccc(C)n6)(C5)C3)C4)nc2c1 [Example 56, 7-Methyl-imidazo[1,2-a]pyridine-2-carboxylic acid {3-[(6-methyl-pyridine-2-carbonyl)-amino]-adamantan-1-yl}-amide] |
| 63 to 99% | CN(C)CCCNc1cccc(C(=O)NC23CC4CC(CC(NC(=O)c5cccc(F)c5)(C4)C2)C3)n1 [Example 247, 6-(3-Dimethylamino-propylamino)-pyridine-2-carboxylic acid [3-(3-fluoro-benzoylamino)-adamantan-1-yl]-amide] |
| 63 to 99% | O=C(NC12CC3CC(C1)CC(NC(=O)c1cccc(N4CCC(O)CC4)n1)(C3)C2)c1cccc(F)c1 [Example 218, 4-Hydroxy-3,4,5,6-tetrahydro-2H-[1,2′]-bipyridinyl-6′-carboxylic acid [3-(3-fluoro-benzoylamino)-adamantan-1-yl]-amide] |
| 63 to 99% | Cc1cncc(C(=O)NC23CC4CC(C2)CC(NC(=O)c2ccc5cnccc5n2)(C4)C3)n1 [Example 174, [1,6]Naphthyridine-2-carboxylic acid {3-[(6-methyl-pyrazine-2-carbonyl)-amino]-adamantan-1-yl}-amide] |
| 63 to 99% | Cc1ccnc(C(=O)NC23CC4CC(CC(NC(=O)c5ccncn5)(C4)C2)C3)n1 [Example 194, 4-Methyl-pyrimidine-2-carboxylic acid {3-[(pyrimidine-4-carbonyl)-amino]-adamantan-1-yl}-amide] |
| 70 to 99% | Cc1cccc(C(=O)NC23CC4CC(C2)CC(NC(=O)c2cccc(N)n2)(C4)C3)n1 [Example 117, 6-Methyl-pyridine-2-carboxylic acid {3-[(6-aminopyridine-2-carbonyl)-amino]-adamantan-1-yl}-amide] |
